Experimental data reported in ChEMBL document CHEMBL1201862, “PubChem BioAssay data set” (2004).
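Compound exposure: 48 hours, 5 concentrations, 96-well plates. GI50: concentration for 50% inhibition of growth.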 Active and inactive are the calls of the source. Cut-off read from the data, not from the text of the source: active = GI50 up to about 1.1 µM and inactive = higher.

Key:
Test in all cases: DTP human tumour cell line panel, 48 h
[1] = tested on: HCC 2998
[2] = tested on: LOX IMVI
[3] = tested on: OVCAR-4
[4] = tested on: UACC-62
[5] = tested on: ACHN
[6] = tested on: HOP-92
[7] = tested on: OVCAR-5
[8] = tested on: SK-MEL-2
[9] = tested on: MOLT-4
[10] = tested on: NCI-H460
[11] = tested on: HCT-116
[12] = tested on: OVCAR-3
[13] = tested on: SK-MEL-5
[14] = tested on: Malme-3M
[15] = tested on: HL-60
[16] = tested on: A498
[17] = tested on: SN12C
[18] = tested on: EKVX
[19] = tested on: UO-31
[20] = tested on: OVCAR-8

Measured: GI50

Cc1ccc(S(=O)(=O)NC(CO)C(=O)O)cc1 (stereo not given)
inactive: [1] > 100 µM | [2] > 100 µM | [3] > 100 µM | [4] > 100 µM | [5] > 100 µM | [6] > 100 µM | [7] > 100 µM | [8] > 100 µM | [9] > 100 µM | [10] > 100 µM | [11] > 100 µM | [12] > 100 µM | [13] > 100 µM | [14] > 100 µM | [15] > 100 µM | [16] > 100 µM | [17] > 100 µM | [18] > 100 µM | [19] > 100 µM | [20] > 100 µM

Nc1nc(Cl)cc(NC2(CO)CCC2)n1
inactive: [1] > 100 µM | [2] > 100 µM | [3] > 100 µM | [4] > 100 µM | [5] > 100 µM | [6] > 100 µM | [7] > 100 µM | [8] > 100 µM | [9] > 100 µM | [10] > 100 µM | [11] > 100 µM | [12] > 100 µM | [13] > 100 µM | [14] > 100 µM | [15] > 100 µM | [16] > 100 µM | [17] > 100 µM | [18] > 100 µM | [19] > 100 µM | [20] > 100 µM

Cc1ccc(C2C(Cl)C(=O)N2NC(=O)c2ccc(N)cc2)cc1 (stereo not given)
inactive: [1] > 100 µM | [2] 11.2 µM | [3] 29 µM | [4] 15.8 µM | [5] 31.9 µM | [6] 14.5 µM | [7] 24.3 µM | [8] 1.33 µM | [9] 11.4 µM | [10] 17.6 µM | [11] 15 µM | [12] 17.4 µM | [13] 15.2 µM | [14] 17.1 µM | [15] 12.1 µM | [16] 22.5 µM | [17] 22.7 µM | [18] 28.8 µM | [19] 30 µM | [20] 14.4 µM

Clc1cccc(N/N=N/c2ccc(-c3nc4ccccc4s3)cc2)c1
inactive: [1] 64.4 µM | [2] 53 µM | [3] 46.9 µM | [4] 25.2 µM | [5] > 100 µM | [6] 20.4 µM | [7] > 100 µM | [8] 21.2 µM | [9] 18.4 µM | [10] 50.9 µM | [11] 32.7 µM | [12] 51.5 µM | [13] 25.4 µM | [14] 26.6 µM | [15] 6.34 µM | [16] > 100 µM | [17] 21.9 µM | [18] > 100 µM | [19] > 100 µM | [20] 22.4 µM

COc1c(/C=C/C=O)cc2c(c1OC)OCO2
inactive: [1] 29.4 µM | [2] 24.5 µM | [3] 16.6 µM | [4] 19.3 µM | [5] 27.3 µM | [6] 61.5 µM | [7] 7.41 µM | [8] 23.4 µM | [9] 20.5 µM | [10] 14.7 µM | [11] 34 µM | [12] 33.2 µM | [13] 21.1 µM | [14] 20.7 µM | [15] 23.6 µM | [16] 1.21 µM | [17] 24.2 µM | [18] 55.3 µM | [19] 35.9 µM | [20] 33.6 µM

CC1=C(O)C(=O)c2cn(C)cc2C1=O
inactive: [1] > 100 µM | [2] > 100 µM | [3] > 100 µM | [4] > 100 µM | [5] > 100 µM | [6] > 100 µM | [7] > 100 µM | [8] > 100 µM | [9] > 100 µM | [10] > 100 µM | [11] > 100 µM | [12] > 100 µM | [13] > 100 µM | [14] > 100 µM | [15] > 100 µM | [16] > 100 µM | [17] > 100 µM | [18] > 100 µM | [19] > 100 µM | [20] > 100 µM

Cc1cc(NS(=O)(=O)c2ccc(Nc3c4ccccc4nc4ccc(C(=O)Nc5ccc(S(N)(=O)=O)cc5)cc34)cc2)no1
inactive: [1] > 100 µM | [2] > 100 µM | [3] > 100 µM | [4] > 100 µM | [5] > 100 µM | [6] > 100 µM | [7] > 100 µM | [8] > 100 µM | [9] > 100 µM | [10] > 100 µM | [11] > 100 µM | [12] > 100 µM | [13] > 100 µM | [14] > 100 µM | [15] > 100 µM | [16] > 100 µM | [17] > 100 µM | [18] > 100 µM | [19] > 100 µM | [20] > 100 µM

COc1ccc2c(c1)CCc1c(CO)c(COC(=O)NC(C)C)n(C)c1-2
inactive: [1] 8.85 µM | [2] 4.91 µM | [3] 4.34 µM | [4] 5.6 µM | [5] 3.83 µM | [6] 4.01 µM | [7] 24.2 µM | [8] 11.2 µM | [9] 2.68 µM | [10] 5.56 µM | [11] 2.91 µM | [12] 8.51 µM | [13] 4.51 µM | [14] 4.15 µM | [15] 1.59 µM | [16] 9.29 µM | [17] 8.93 µM | [18] 22.9 µM | [19] 4.97 µM | [20] 3.33 µM

N#CC(C#N)SCc1ccccc1
inactive: [1] 61.2 µM | [2] 5.11 µM | [3] 23.7 µM | [4] 34.4 µM | [5] 40.4 µM | [6] 15.5 µM | [7] 17.3 µM | [8] 7.36 µM | [9] 1.67 µM | [10] 14.7 µM | [11] 6.55 µM | [12] 23.8 µM | [13] 11.9 µM | [14] 47.8 µM | [15] 4.44 µM | [16] > 71.4 µM | [17] 8.3 µM | [18] > 96.2 µM | [19] 20.1 µM | [20] 15 µM

CC1=CC2CC(C)C1(C)CCc1ccoc12 (stereo not given)
inactive: [1] > 100 µM | [2] > 100 µM | [3] > 100 µM | [4] > 100 µM | [5] > 100 µM | [6] > 100 µM | [7] > 100 µM | [8] > 100 µM | [9] > 100 µM | [10] > 100 µM | [11] > 100 µM | [12] > 100 µM | [13] > 100 µM | [14] > 100 µM | [15] > 100 µM | [16] > 100 µM | [17] > 100 µM | [18] > 100 µM | [19] > 100 µM | [20] > 100 µM
